Results reported in US20250136553A1, “ACYLSULFONAMIDE KAT6A INHIBITORS” (Olema Pharmaceuticals, Inc., priority 2023, published 2025).
Where two headings read alike, the source gives them in different places.

Target: human-KAT6A (MYST domain 507-778 aa) (Homo sapiens (Human), UniProt Q92794)
Assay: KAT6A biochemical assay (TR-FRET)
Conditions: for IC50: TR-FRET, histone H4 peptide 200 nM, acetyl-CoA 600 nM; for inhibition at 10 µM: reported where IC50 could not be determined, read-out: Percent inhibition at specific concentration (KAT6A)
Source text: TR-FRET based methods were used for assaying compounds of the present invention for KAT6A enzyme inhibitory activity. TR-FRET is a homogeneous proximity assay where Europium-labelled anti-acetyl lysine antibody binds to the acetylated substrate labelled with biotin, which in turn binds to streptavidin-labelled APC fluorescence acceptor. Europium can transfer energy to APC in the complex and the interaction of two dye-labelled binding partners is detected by the energy transfer between a donor and an acceptor dye and the subsequent light emission by the acceptor dye. KAT6A transfer an acetyl group from acetyl CoA to lysine amino acids of histones/target proteins. […] The selected compound of the present invention and enzyme are incubated for 30 min on plate shaker at 300 rpm at 25° C. Next, 5 μL of substrate mix containing histone H4 peptide and acetyl-CoA in assay buffer is added to the plate. The final concentrations of H4 peptide and acetyl-CoA are 200 nM and 600 nM, respectively. Following 60 min reaction at 25° C. on plate shaker at 300 rpm, 5 μL of detection mix containing Europium-labelled anti-acetyl antibody and streptavidin-APC is added to the reaction wells. The plate is further incubated at 25° C. on shaker at 300 rpm and is read in TR-FRET mode (Ex:340 nm; Em: 615 nm and 665 nm) on a plate reader to achieve ˜5-7-fold activity. The percent inhibition was calculated from the ratio of the fluorescence (FL) intensities [(F665/F615)×10000) using the formula […]. IC50 values of the compounds were determined by fitting the dose-response data to sigmoidal curve fitting equation using Graph pad prism software V9.

Chain of human-KAT6A (MYST domain 507-778 aa) (Q92794 507-778): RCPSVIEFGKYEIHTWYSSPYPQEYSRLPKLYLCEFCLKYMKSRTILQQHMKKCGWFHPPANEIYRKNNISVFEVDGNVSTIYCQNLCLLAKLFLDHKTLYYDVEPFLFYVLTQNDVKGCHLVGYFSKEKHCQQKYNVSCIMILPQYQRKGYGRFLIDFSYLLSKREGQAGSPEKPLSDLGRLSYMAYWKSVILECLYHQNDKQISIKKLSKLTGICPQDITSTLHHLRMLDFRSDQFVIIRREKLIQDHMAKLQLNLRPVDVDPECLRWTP

Compound: 5-((1H-pyrazol-1-yl)methyl)-N-((5-(tert-butyl)-2-methoxyphenyl)sulfonyl)-4-methoxypyrimidine-2-carboxamide [Compound 264]
- IC50 (read-out: KAT6A IC50): 12 nM

Compound: CCOc1cccc(OC)c1S(=N)(=O)NC(=O)c1ccc(Cn2cccn2)c(OC)n1 (racemic) [Compound 294, 5-((1H-pyrazol-1-yl)methyl)-N-(2-ethoxy-6-methoxyphenylsulfonimidoyl)-6-methoxypicolinamide]
- IC50 (read-out: KAT6A IC50): 35 nM

Compound: COc1ccc(C(C)(C)O)cc1S(=N)(=O)NC(=O)c1ccc(Cn2cccn2)c(OC)n1 (racemic) [Compound 297, 5-((1H-pyrazol-1-yl)methyl)-N-(5-(2-hydroxypropan-2-yl)-2-methoxyphenylsulfonimidoyl)-6-methoxypicolinamide]
- IC50 (read-out: KAT6A IC50): 39 nM

Compound: COc1cc(OC)c(S(=N)(=O)NC(=O)c2ccc(Cn3cccn3)c(OC)c2)c(OC)c1 (racemic) [Compound 299, 4-((1H-pyrazol-1-yl)methyl)-3-methoxy-N-(2,4,6-trimethoxyphenylsulfonimidoyl)benzamide]
- IC50 (read-out: KAT6A IC50): 25 nM

Compound: COc1cccc(OC)c1S(=N)(=O)NC(=O)c1ccc(Cn2cccn2)c(OC)n1 (single isomer, unassigned) [Compound 243a]
- IC50 (read-out: KAT6A IC50): 17 nM

Compound: COc1cccc(OC)c1S(=N)(=O)NC(=O)c1ccc(Cn2cccn2)c(OC)n1 (single isomer, unassigned) [Compound 243b]
- IC50 (read-out: KAT6A IC50): 82 nM

Compound: COc1cc(Cn2cccn2)ccc1C(=O)NS(=O)(=O)c1c(OC)cccc1OC [Compound 1, 4-((1H-pyrazol-1-yl)methyl)-N-((2,6-dimethoxyphenyl)sulfonyl)-2-methoxybenzamide]
- IC50 (read-out: KAT6A IC50): 247 nM

Compound: COc1cc(Cn2cccn2)ccc1C(=O)NS(=O)(=O)c1ccccc1OC [Compound 2, 4-((1H-pyrazol-1-yl)methyl)-2-methoxy-N-((2-methoxyphenyl)sulfonyl)benzamide]
- IC50 (read-out: KAT6A IC50): 741 nM

Compound: CCc1ccc(OC)c(S(=O)(=O)NC(=O)c2ccc(Cn3cccn3)cc2OC)c1 [Compound 3, 4-((1H-pyrazol-1-yl)methyl)-N-((5-ethyl-2-methoxyphenyl)sulfonyl)-2-methoxybenzamide]
- IC50 (read-out: KAT6A IC50): 137 nM

Compound: COc1cc(Cn2cccn2)ccc1C(=O)NS(=O)(=O)c1cc(C(C)(C)C)ccc1OC [Compound 4]
- IC50 (read-out: KAT6A IC50): 82 nM

Compound: COc1cc(Cn2cccn2)ccc1C(=O)NS(=O)(=O)c1cc2c(cc1OC)CCC2 [Compound 5, 4-((1H-pyrazol-1-yl)methyl)-2-methoxy-N-((6-methoxy-2,3-dihydro-1H-inden-5-yl)sulfonyl)benzamide]
- IC50 (read-out: KAT6A IC50): 178 nM

Compound: COc1cc(Cn2cccn2)cc(C(=O)NS(=O)(=O)c2c(OC)cccc2OC)c1 [Compound 6, 3-((1H-pyrazol-1-yl)methyl)-N-((2,6-dimethoxyphenyl)sulfonyl)-5-methoxybenzamide]
- inhibition at 10 µM: 26%

Compound: COc1ccc(C(C)(C)C)cc1S(=O)(=O)NC(=O)c1ccc(Cn2cccn2)cc1F [Compound 7, 4-((1H-pyrazol-1-yl)methyl)-N-((5-(tert-butyl)-2-methoxyphenyl)sulfonyl)-2-fluorobenzamide]
- IC50 (read-out: KAT6A IC50): 99 nM

Compound: COc1cc(C(=O)NS(=O)(=O)c2ccc(C(C)(C)C)cc2OC)ccc1Cn1cccn1 [Compound 8, 4-((1H-pyrazol-1-yl)methyl)-N-((4-(tert-butyl)-2-methoxyphenyl)sulfonyl)-3-methoxybenzamide]
- IC50 (read-out: KAT6A IC50): 17 nM

Compound: COc1ccc(Cn2cccn2)cc1C(=O)NS(=O)(=O)c1cc(C(C)(C)C)ccc1OC [Compound 9, 5-((1H-pyrazol-1-yl)methyl)-N-((5-(tert-butyl)-2-methoxyphenyl)sulfonyl)-2-methoxybenzamide]
- inhibition at 10 µM: 13%

Compound: COc1cc(Cn2cccn2)ccc1C(=O)NS(=O)(=O)c1ccc(-n2cccn2)cc1OC [Compound 10, 4-((1H-pyrazol-1-yl)methyl)-2-methoxy-N-((2-methoxy-4-(1H-pyrazol-1-yl)phenyl)sulfonyl)benzamide]
- IC50 (read-out: KAT6A IC50): 1480 nM

Compound: COc1cc(Cn2cccn2)ccc1C(=O)NS(=O)(=O)c1ccc(C(C)(C)C)cc1OC [Compound 11, 4-((1H-pyrazol-1-yl)methyl)-N-((4-(tert-butyl)-2-methoxyphenyl)sulfonyl)-2-methoxybenzamide]
- IC50 (read-out: KAT6A IC50): 500 nM

Compound: COc1cccc(OC)c1S(=O)(=O)NC(=O)c1ccc(Cn2cccn2)c(F)c1 [Compound 12, 4-((1H-pyrazol-1-yl)methyl)-N-((2,6-dimethoxyphenyl)sulfonyl)-3-fluorobenzamide]
- IC50 (read-out: KAT6A IC50): 48 nM

Compound: COc1ccc(C(C)(C)C)cc1S(=O)(=O)NC(=O)c1ccc(Cn2cccn2)c(F)c1 [Compound 13, 4-((1H-pyrazol-1-yl)methyl)-N-((5-(tert-butyl)-2-methoxyphenyl)sulfonyl)-3-fluorobenzamide]
- IC50 (read-out: KAT6A IC50): 47 nM

Compound: COc1cc(C(=O)NS(=O)(=O)c2c(OC)cccc2OC)ccc1Cn1cccn1 [Compound 14, 4-((1H-pyrazol-1-yl)methyl)-N-((2,6-dimethoxyphenyl)sulfonyl)-3-methoxybenzamide]
- IC50 (KAT6A IC50 (nM)): 7 nM
- IC50 (read-out: KAT6A IC50): 32 nM

Compound: COc1cc(Cn2cccn2)ccc1C(=O)NS(=O)(=O)c1cc2c(cc1OC)CCCC2 [Compound 15, 4-((1H-pyrazol-1-yl)methyl)-2-methoxy-N-((3-methoxy-5,6,7,8-tetrahydronaphthalen-2-yl)sulfonyl)benzamide]
- IC50 (read-out: KAT6A IC50): 576 nM

Compound: COc1ccc(C(C)(C)C)cc1S(=O)(=O)NC(=O)c1ccc(Cn2cccn2)c(Br)c1 [Compound 16, 4-((1H-pyrazol-1-yl)methyl)-3-bromo-N-((5-(tert-butyl)-2-methoxyphenyl)sulfonyl)benzamide]
- IC50 (read-out: KAT6A IC50): 26 nM

Compound: COc1ccc(C(C)(C)C)cc1S(=O)(=O)NC(=O)c1ccc(Cn2cccn2)c(C2CC2)c1 [Compound 17, 4-((1H-pyrazol-1-yl)methyl)-N-((5-(tert-butyl)-2-methoxyphenyl)sulfonyl)-3-cyclopropylbenzamide]
- IC50 (read-out: KAT6A IC50): 20 nM

Compound: COc1ccc(C(C)(C)C)cc1S(=O)(=O)NC(=O)c1ccc(Cn2cccn2)c(C#N)c1 [Compound 18]
- IC50 (read-out: KAT6A IC50): 70 nM

Compound: COc1cc(C(=O)NS(=O)(=O)c2cc(-n3cccn3)ccc2OC)ccc1Cn1cccn1 [Compound 19, 4-((1H-pyrazol-1-yl)methyl)-3-methoxy-N-((2-methoxy-5-(1H-pyrazol-1-yl)phenyl)sulfonyl)benzamide]
- IC50 (read-out: KAT6A IC50): 42 nM

Compound: COc1ccc(C(C)(C)C)cc1S(=O)(=O)NC(=O)c1ccc(Cn2cccn2)c(C)c1 [Compound 20, 4-((1H-pyrazol-1-yl)methyl)-N-((5-(tert-butyl)-2-methoxyphenyl)sulfonyl)-3-methylbenzamide]
- IC50 (read-out: KAT6A IC50): 39 nM

Compound: CCOc1cc(C(=O)NS(=O)(=O)c2cc(C(C)(C)C)ccc2OC)ccc1Cn1cccn1 [Compound 21, 4-((1H-pyrazol-1-yl)methyl)-N-((5-(tert-butyl)-2-methoxyphenyl)sulfonyl)-3-ethoxybenzamide]
- IC50 (read-out: KAT6A IC50): 28 nM

Compound: COc1cc(C(=O)NS(=O)(=O)c2ccccc2-c2ccccc2)ccc1Cn1cccn1 [Compound 22, 4-((1H-pyrazol-1-yl)methyl)-N-([1,1′-biphenyl]-2-ylsulfonyl)-3-methoxybenzamide]
- IC50 (read-out: KAT6A IC50): 49 nM

Compound: COc1cc(C(=O)NS(=O)(=O)c2cccc(O)c2)ccc1Cn1cccn1 [Compound 23, 4-((1H-pyrazol-1-yl)methyl)-N-((3-hydroxyphenyl)sulfonyl)-3-methoxybenzamide]
- IC50 (read-out: KAT6A IC50): 32 nM

Compound: COc1cc(C(=O)NS(=O)(=O)c2cc(Br)ccc2OC)ccc1Cn1cccn1 [Compound 24, 4-((1H-pyrazol-1-yl)methyl)-N-((5-bromo-2-methoxyphenyl)sulfonyl)-3-methoxybenzamide]
- IC50 (read-out: KAT6A IC50): 12 nM

Compound: COc1ccc(C(C)(C)C)cc1S(=O)(=O)NC(=O)c1ccc(Cn2cccn2)c(C(F)(F)F)c1 [Compound 25, 4-((1H-pyrazol-1-yl)methyl)-N-((5-(tert-butyl)-2-methoxyphenyl)sulfonyl)-3-(trifluoromethyl)benzamide]
- IC50 (read-out: KAT6A IC50): 10 nM

Compound: COc1cc(C(=O)NS(=O)(=O)c2ccccc2OC)ccc1Cn1cccn1 [Compound 26, N-(2-methoxyphenyl)sulfonyl-3-methoxy-4-(pyrazol-1-ylmethyl)benzamide]
- IC50 (read-out: KAT6A IC50): 25 nM

Compound: COc1cc(C(=O)NS(=O)(=O)c2cc3c(cc2OC)CCC3)ccc1Cn1cccn1 [Compound 27, 4-((1H-pyrazol-1-yl)methyl)-3-methoxy-N-((6-methoxy-2,3-dihydro-1H-inden-5-yl)sulfonyl)benzamide]
- IC50 (read-out: KAT6A IC50): 12 nM

Compound: COc1cccc(OC)c1S(=O)(=O)NC(=O)c1ccc(Cn2cccn2)c(C2CC2)c1 [Compound 28, 4-((1H-pyrazol-1-yl)methyl)-3-cyclopropyl-N-((2,6-dimethoxyphenyl)sulfonyl)benzamide]
- IC50 (read-out: KAT6A IC50): 19 nM

Compound: COc1cc(C(=O)NS(=O)(=O)c2cc(C3CC3)ccc2OC)ccc1Cn1cccn1 [Compound 29, 4-((1H-pyrazol-1-yl)methyl)-N-((5-cyclopropyl-2-methoxyphenyl)sulfonyl)-3-methoxybenzamide]
- IC50 (read-out: KAT6A IC50): 10 nM
